The nature of data set [1]: Solubility in buffer systems by UPLC-UV (Example 13). The data set is classed as physicochemical. Summed up:
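Quantitation used UV peak area from UPLC of the 1:10-diluted supernatant, set against a reference-compound standard curve with extinction coefficients adjusted for amino acid sequence.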

For a further data set, the system named is rat CRF2R α receptor. Nature of the data set: cAMP agonism at rat CRF2R α receptor in A7R5 rat aortic smooth muscle cells (Example 8). Format: cell-based. The conditions noted are these: cAMP HTRF, A7R5 rat aortic smooth muscle cell line, 0% HSA. The method, boiled down:
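Potency (EC50) is the concentration reaching half-maximal activation, with responses scaled so that 1000 nM urocortin 2 equals 100%. Intracellular cAMP was quantified by homogeneous time-resolved fluorescence at 665/620 nm, 1 h after lysis-buffer reagents. Compound stimulation lasted 30 min at room temperature on 2000 IBMX-treated (2 mM) cells per well in HEPES-buffered HBSS.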

Data set [2] can be described thus: Physical stability, dynamic light scattering assay (Example 15). The conditions noted are these: Buffer A (100 mM acetate, pH 4.5); for Apparent Rh [nm] 4 weeks / Scattering Intensity (I) [%] 4 weeks: 4 weeks at 40° C. Format: physicochemical. How it is done: The physical stability of the compounds was also assessed using a dynamic light scattering assay.
In the present study, the physical stability of test compounds was assessed by determining the apparent hydrodynamic radius (Rh), the scattering intensity (I) and mass contribution (M) after synthesis (0 weeks) and after storage for 4 weeks at 40° C.
For each solution of test compound, the hydrodynamic radius Rh and the diffusion constant D (related via the Stokes-Einstein equation) were determined as an average over triplicates. Both parameters were determined at different compound concentrations (e.g., Rh1 and D1: 1 mg/ml and Rh5 and D5: 5 mg/ml, Rh10 and D10: 10 mg/mL) in the same buffer system. The difference of these parameters between low and high peptide concentration is a surrogate for the DLS interaction parameter kD. […] In addition, the hydrodynamic radius Rh and the corresponding Scattering Intensity (%) were determined as an average over duplicates. The target concentration was 300 μM. Therefore, solutions from solid samples were prepared in a buffer system with a concentration of 300 μM compound based on the previously determined % purity.
DLS measurements were performed on a DynaPro Plate Reader I (Wyatt Technology, Santa Barbara, CA, US) with an 837 nm laser light source at a scattering angle of 150°. The data were collected and processed with Dynamics V 7.8.1.3 or 7.8.2.18 software provided by Wyatt Technology.
Hydrodynamic radii were determined with non-negatively constrained least squares (NNLS) methods using DYNALS algorithms with regularization fit. […] Samples were tempered over 1 hour at +25° C. and visually inspected before analysis.
Samples were mixed with the aid of a pipet tip. Measurements were performed in 5 replicates. […] The plate was centrifuged for 2 minutes at 600 rcf. After removing the sealing, the samples were measured at +25° C.

For another data set, the target named is T1, human CRF2α receptor (Homo sapiens, UniProt Q13324).
T1 construct: expressed in transfected cells; host or cells: TeloHEAC
T1 sequence (Q13324 1-411): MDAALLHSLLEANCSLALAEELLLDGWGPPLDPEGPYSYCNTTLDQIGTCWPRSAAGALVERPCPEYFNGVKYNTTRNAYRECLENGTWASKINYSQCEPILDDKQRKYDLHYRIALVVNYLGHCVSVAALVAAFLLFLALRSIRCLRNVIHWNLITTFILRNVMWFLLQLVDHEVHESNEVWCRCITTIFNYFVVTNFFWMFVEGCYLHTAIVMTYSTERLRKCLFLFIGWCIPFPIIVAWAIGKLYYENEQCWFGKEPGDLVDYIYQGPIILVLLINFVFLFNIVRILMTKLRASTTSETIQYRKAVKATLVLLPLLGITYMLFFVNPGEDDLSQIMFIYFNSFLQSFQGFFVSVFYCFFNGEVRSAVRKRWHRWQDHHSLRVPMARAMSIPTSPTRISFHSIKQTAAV
Nature of the data set: cAMP agonism at human CRF2 α receptor in TeloHEAC cells (Example 7). As to conditions: cAMP HTRF, TeloHEAC cells stably expressing human CRF2 α. The data set is classed as cell-based. Summed up: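 Cryopreserved cells are thawed, washed and resuspended in IBMX-containing (2 mM) HEPES-buffered HBSS with or without 0.1% HSA. Compound incubation runs 30 min at room temperature with 2000 cells per well, then cAMP is measured by time-resolved FRET. Potency is expressed as EC50, efficacy relative to urocortin 2 at 1000 nM.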

The nature of data set [3]: Chemical stability, purity loss by UPLC-UV after 28 days at 40° C. vs 5° C., pH 4.5 acetate buffer (Example 12). Format: physicochemical. The conditions noted are these: 28 days 40° C. vs 5° C.; pH 4.5, 20 mM acetate buffer; 300 μM. As to the method: The chemical stability of the compounds was assessed by storing the compounds under various conditions and then determining the loss of purity by UPLC-UV.
Prior to measuring the chemical stability of a batch of test compound, the purity of the compound was determined through UPLC/MS. For stability testing the target concentration was 300 μM pure compound. Therefore, solutions from solid samples were prepared in a pH 4.5, 20 mM acetate buffer system with a concentration of 300 μM compound based on the previously determined % purity:
At the starting point, UPLC-UV was performed by injection of 2 μl of the undiluted sample. Aliquots were then stored for 28 days at temperatures of 5 and 40° C. […] Then 2 μl samples of the undiluted supernatant were analysed with UPLC-UV. The chemical stability was calculated by the equation: [(purity after 28 days at 5° C.)−(purity after 28 days at 40° C.)]/(purity after 28 days at 5° C.)]×100%. The purity was calculated as: [(peak area compound)/(total peak area)]×100%.

In another data set the target is T2, CRF1R receptor (Homo sapiens, UniProt P34998).
T2 construct: host or cells: CHO-K1 clone 2
T2 sequence (P34998 24-415): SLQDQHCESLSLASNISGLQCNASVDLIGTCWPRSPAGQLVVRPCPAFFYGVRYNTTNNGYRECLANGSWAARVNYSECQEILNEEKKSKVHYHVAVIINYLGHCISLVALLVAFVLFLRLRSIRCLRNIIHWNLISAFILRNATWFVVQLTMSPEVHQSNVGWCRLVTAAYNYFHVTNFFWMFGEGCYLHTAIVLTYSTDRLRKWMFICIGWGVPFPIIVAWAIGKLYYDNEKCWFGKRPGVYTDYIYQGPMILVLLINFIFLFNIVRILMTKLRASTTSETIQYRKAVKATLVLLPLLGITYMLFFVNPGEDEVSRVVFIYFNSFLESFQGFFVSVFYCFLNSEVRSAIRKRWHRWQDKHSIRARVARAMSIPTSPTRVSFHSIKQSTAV
The data set is described as follows: cAMP activity at anti-target CRF1R, CRF1R-overexpression CHO cell line (Example 9). As to conditions: CRF1R-overexpression CHO cell line. Format: cell-based. The method, boiled down:
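Using thawed CRF1R-overexpressing CHO cells at 2000 per well, compound is applied for 30 min at RT in HBSS/HEPES buffer with IBMX. Cellular cAMP content is determined via HTRF, and percent activity is calculated against 1000 nM UCN2 defined as 100%.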

Where [4] appears, read: pH 7.4, Solubility in Buffer C [mg/ml].
Where [5] appears, read: 0% HSA, read-out: EC50 [nM], 0% HSA.

In brackets after ≈: the same amount, converted by molar mass. Read-outs that look alike come from different tables or passages of the source. Starred links: 1 amine or outer side, 2 acyl side, 3 side chain; linkers in the order of their positions; H or OH if unused. Non-standard residues stand in square brackets, D forms with d. Residues, ends and D or L forms follow the SMILES beside them. Groups on a side chain read outwards from the residue. *: point of attachment. C18 diacid = O=C(O)CCCCCCCCCCCCCCCCC(=O)*; γGlu = O=C(O)[C@H](CCC(=O)[*:2])N[*:1]; AEEA = NCCOCCOCC(=O)O; Aib = CC(C)(N)C(=O)O Where only a bound is given, the exact number is not on record here.

In the case of `CC[C@H](C)[C@H](N)C(=O)N[C@H](C(=O)N[C@@H](CC(C)C)C(=O)N[C@@H](CO)C(=O)N[C@@H](CC(C)C)C(=O)N[C@@H](CC(=O)O)C(=O)N[C@@H](C(=O)N1CCC[C@H]1C(=O)N[C@H](C(=O)N[C@@H](CCCCN)C(=O)N[C@@H](CC(C)C)C(=O)N[C@@H](CCCCNC(=O)COCCOCCNC(=O)COCCOCCNC(=O)CC[C@H](NC(=O)CCCCCCCCCCCCCCCCC(=O)O)C(=O)O)C(=O)N[C@@H](CCC(N)=O)C(=O)N[C@@H](CCCCN)C(=O)N[C@@H](CC(C)C)C(=O)N[C@@H](CC(C)C)C(=O)N[C@@H](CCCCN)C(=O)N[C@@H](CCC(N)=O)C(=O)N[C@@H](CCC(=O)O)C(=O)N[C@@H](CCCNC(=N)N)C(=O)N[C@@H](CCC(N)=O)C(=O)N[C@@H](CCCNC(=N)N)C(=O)N[C@@H](CCCCN)C(=O)NC(C)(C)C(=O)N[C@@H](CCCNC(=N)N)C(=O)N[C@@H](CCC(=O)O)C(=O)N[C@@H](CCC(N)=O)C(=O)N[C@@H](C)C(=O)N[C@@H](CCC(=O)O)C(=O)N[C@@H](CCCCN)C(=O)N[C@@H](CC(N)=O)C(=O)N[C@@H](CCCCN)C(=O)N[C@@H](CCCNC(=N)N)C(=O)N[C@H](C(=O)N[C@@H](CC(C)C)C(=O)N[C@@H](CCC(=O)O)C(=O)N[C@@H](CCCNC(=N)N)C(=O)N[C@H](C(N)=O)C(C)C)[C@@H](C)CC)[C@@H](C)O)C(C)C)C(C)C` [compound 36] (H-IVLSLD[dV]PTKLK([AEEA-AEEA-γGlu-C18 diacid])QKLLKQERQRK[Aib]REQAEKNKRILERV-NH2; N-terminus assumed), the solubility at 1 h in data set [1] (setting [4]) was more than 9700 µg/mL. In the data set with rat CRF2R α receptor, this compound showed an EC50 of 13.3 nM. In data set [2], the “Apparent Rh [nm] 0 weeks” value was 1.42 ± 0.08 nm, the “Scattering Intensity (I) [%] 0 weeks” value is on record as 88 ± 8%, the “Apparent Rh [nm] 4 weeks” value is given as 1.48 ± 0.11 nm and the “Scattering Intensity (I) [%] 4 weeks” value amounted to 98 ± 2%. In addition, the EC50 on human CRF2α receptor (setting [5]) was 1.45 nM. Further, the “Relative purity loss [%]” value in data set [3] is recorded as 3.65%.
With `CC[C@H](C)[C@H](N)C(=O)N[C@H](C(=O)N[C@@H](CC(C)C)C(=O)N[C@@H](CO)C(=O)N[C@@H](CC(C)C)C(=O)N[C@@H](CC(=O)O)C(=O)N[C@@H](C(=O)N1CCC[C@H]1C(=O)N[C@H](C(=O)N[C@@H](CCCCN)C(=O)N[C@@H](CC(C)C)C(=O)N[C@@H](CCCCNC(=O)COCCOCCNC(=O)COCCOCCNC(=O)CC[C@H](NC(=O)CCCCCCCCCCCCCCCCC(=O)O)C(=O)O)C(=O)N[C@@H](CCC(N)=O)C(=O)N[C@H](C(=O)N[C@@H](CC(C)C)C(=O)N[C@@H](CC(C)C)C(=O)N[C@@H](CCCCN)C(=O)N[C@@H](CCC(N)=O)C(=O)N[C@@H](CCC(=O)O)C(=O)N[C@@H](CCCNC(=N)N)C(=O)N[C@@H](CCC(N)=O)C(=O)N[C@@H](CCCCN)C(=O)N[C@@H](CCCCN)C(=O)N[C@@H](CCC(N)=O)C(=O)N[C@@H](CCCNC(=N)N)C(=O)N[C@@H](CCC(=O)O)C(=O)N[C@@H](CCCCN)C(=O)N[C@@H](C)C(=O)N[C@@H](CCC(=O)O)C(=O)N[C@@H](CCCCN)C(=O)N[C@@H](CC(N)=O)C(=O)N[C@@H](CCCCN)C(=O)N[C@@H](CCC(N)=O)C(=O)N[C@H](C(=O)N[C@@H](CC(C)C)C(=O)N[C@@H](C)C(=O)N[C@@H](CCC(N)=O)C(=O)N[C@H](C(N)=O)C(C)C)[C@@H](C)CC)[C@@H](C)CC)[C@@H](C)CC)C(C)C)C(C)C` [compound 138] (H-IVLSLD[dV]PIKLK([AEEA-AEEA-γGlu-C18 diacid])QILLKQERQKKQREKAEKNKQILAQV-NH2; N-terminus assumed), the solubility at 1 h in data set [1] (pH 4.5, Solubility in Buffer A [mg/ml]) was more than 8600 µg/mL; in data set [1] (pH 4.5, Solubility in Buffer B [mg/ml]), more than 8700 µg/mL; in data set [1] (setting [4]) it was 8200 µg/mL (≈ 1570 µM). Further, the EC50 is 0.26 nM with rat CRF2R α receptor; more than 1000 nM on CRF1R receptor (0% HSA); 0.06 nM on human CRF2α receptor (setting [5]); 3.12 nM at human CRF2α receptor (0.1% HSA, read-out: EC50 [nM], 0.1% HSA). Besides, in data set [2], the “Apparent Rh [nm] 0 weeks” value was 2.75 ± 0.19 nm. In addition, the “Scattering Intensity (I) [%] 0 weeks” value in data set [2] is reported as 86 ± 4%. Besides, in data set [2], the “Apparent Rh [nm] 4 weeks” value was found to be 2.82 ± 0.11 nm. Moreover, the “Scattering Intensity (I) [%] 4 weeks” value in data set [2] came out at 84 ± 1%. Further, the Emax on CRF1R receptor (read-out: Emax (%)) was 4.38%. Further, in data set [3], the “Relative purity loss [%]” value is given as 2.85%.

The values above are taken from patent publication US12679878B2, “CRF2 receptor agonists and their use in therapy” (SANOFI, priority 2020, dated 2026).
